Assay results from ChEMBL document CHEMBL1147544, “N-alkyl-4-[(8-azabicyclo[3.2.1]-oct-3-ylidene)phenylmethyl]benzamides, micro and delta opioid agonists: a micro address” (Bioorg Med Chem Lett, 2004).

Legend:
[1] = target: Delta-type opioid receptor (Homo sapiens, UniProt P41143); assay: In vitro binding affinity towards opioid receptor delta 1
Mu-type opioid receptor [2] = target: T1, Mu-type opioid receptor (Homo sapiens, UniProt P35372); assay: In vitro binding affinity towards opioid receptor mu 1; parameters: species or system unidentified
T1 sequence (P35372 whole entry): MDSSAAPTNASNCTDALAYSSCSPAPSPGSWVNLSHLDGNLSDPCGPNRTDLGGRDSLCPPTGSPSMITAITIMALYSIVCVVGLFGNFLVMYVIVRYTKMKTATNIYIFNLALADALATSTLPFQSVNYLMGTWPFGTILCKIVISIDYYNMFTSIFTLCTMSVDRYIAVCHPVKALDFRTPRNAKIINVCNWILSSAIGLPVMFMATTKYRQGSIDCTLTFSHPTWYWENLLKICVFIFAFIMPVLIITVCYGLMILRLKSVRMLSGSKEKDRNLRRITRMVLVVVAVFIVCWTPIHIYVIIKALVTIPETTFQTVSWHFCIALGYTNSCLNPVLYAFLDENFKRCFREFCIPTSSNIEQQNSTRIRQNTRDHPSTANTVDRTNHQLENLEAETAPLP

Mus musculus = assay: Antinociceptive activity by mouse hotplate test (55 degree C, po ); type: functional
Mu-type opioid receptor [3] = target: T1, Mu-type opioid receptor; assay: Percentage stimulation of [35S]GTP-gamma-S, binding at the opioid receptor mu 1 at 10 uM; type: functional

Delta-type opioid receptor, sequence (P41143 whole entry): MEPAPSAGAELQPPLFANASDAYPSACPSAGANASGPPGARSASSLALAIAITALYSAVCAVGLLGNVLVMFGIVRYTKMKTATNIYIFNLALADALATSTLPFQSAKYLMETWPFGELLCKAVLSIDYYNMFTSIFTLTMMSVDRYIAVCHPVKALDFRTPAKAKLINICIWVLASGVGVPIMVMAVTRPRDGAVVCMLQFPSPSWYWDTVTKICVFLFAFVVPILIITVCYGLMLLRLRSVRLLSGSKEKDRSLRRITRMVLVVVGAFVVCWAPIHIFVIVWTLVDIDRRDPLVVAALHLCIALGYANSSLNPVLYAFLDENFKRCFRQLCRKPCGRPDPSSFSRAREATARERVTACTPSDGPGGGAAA

Structure (SMILES) | Ki [1] [nM] | Ki (Mu-type opioid receptor [2]) [nM] | ED50 (Mus musculus) [µmol/kg] | Stimulation (Mu-type opioid receptor [3]) [%]
NC(=O)c1ccc(C(=C2CC3CCC(C2)N3CCc2ccccc2)c2ccccc2)cc1 | 35.9 | 39.6 |  | 
CCN(CC)C(=O)c1ccc(/C(=C2\C[C@H]3CC[C@@H](C2)N3CCc2ccccc2)c2ccccc2)cc1 |  |  | 25 | 
CCNC(=O)c1ccc(/C(=C2\C[C@H]3CC[C@@H](C2)N3C)c2ccccc2)cc1 | 292 | 304 |  | 
O=C(Nc1nccs1)c1ccc(C(=C2CC3CCC(C2)N3CCc2ccccc2)c2ccccc2)cc1 | 49.5 | 53 |  | 
CCNC(=O)c1ccc(C(=C2CC3CCC(C2)N3CCc2ccccc2)c2ccc(OC)cc2)cc1 | 11.3 | 6.1 |  | 
CCNC(=O)c1ccc(/C(=C2\C[C@H]3CC[C@@H](C2)N3CCc2ccccc2)c2ccccc2)cc1 | 46.7 | 0.26 | 25 | 490
CC(C)(C)NC(=O)c1ccc(C(=C2CC3CCC(C2)N3CCc2ccccc2)c2ccccc2)cc1 | 352 | 608 |  | 
CCNC(=O)c1ccc(C(=C2CC3CCC(C2)N3CCCc2ccccc2)c2ccccc2)cc1 | 12.3 | 4.8 |  | 
C=CCN1C2CCC1CC(=C(c1ccc(C(=O)NCC)cc1)c1cccc(OC)c1)C2 | 1.45 | 13.8 |  | 
COCCNC(=O)c1ccc(C(=C2CC3CCC(C2)N3CCc2ccccc2)c2ccccc2)cc1 | 103 | 163 |  | 
CCNC(=O)c1ccc(C(=C2CC3CCC(C2)N3)c2ccc(O)cc2)cc1 | 4.5 | 265 |  | 
O=C(NCCF)c1ccc(C(=C2CC3CCC(C2)N3CCc2ccccc2)c2ccccc2)cc1 | 32 | 2.99 |  | 
O=C(NC1CCCCC1)c1ccc(C(=C2CC3CCC(C2)N3CCc2ccccc2)c2ccccc2)cc1 | 924 | 717 |  | 
O=C(Nc1ccccc1)c1ccc(C(=C2CC3CCC(C2)N3CCc2ccccc2)c2ccccc2)cc1 | 1520 | 4240 |  | 
CCNC(=O)c1ccc(/C(=C2/C[C@H]3CC[C@@H](C2)N3C)c2ccccc2)cc1 | 6.39 | 42.5 |  | 
CCNC(=O)c1ccc(/C(=C2/C[C@H]3CC[C@@H](C2)N3CCc2ccccc2)c2ccccc2)cc1 | 4.69 | 7.16 |  | 
C=CCN1[C@@H]2CC[C@H]1C/C(=C(\c1ccccc1)c1ccc(C(=O)NCC)cc1)C2 | 7.72 | 19.1 |  | 
O=C(NC1CC1)c1ccc(C(=C2CC3CCC(C2)N3CCc2ccccc2)c2ccccc2)cc1 | 20 | 1.01 |  | 
CCNC(=O)c1ccc(/C(=C2/C[C@H]3CC[C@@H](C2)N3)c2ccccc2)cc1 | 5.48 | 74.7 |  | 
CCNC(=O)c1ccc(C(=C2CC3CCC(C2)N3c2cccn2C)c2ccccc2)cc1 | 20.8 | 59 |  | 
CCNC(=O)c1ccc(C(=C2CC3CCC(C2)N3Cc2ccccc2Cl)c2ccc(OC)cc2)cc1 | 5.67 | 122 |  | 
CCNC(=O)c1ccc(C(=C2CC3CCC(C2)N3Cc2ccccn2)c2ccccc2)cc1 | 0.86 | 17 |  | 
C=CCN1[C@@H]2CC[C@H]1C/C(=C(/c1ccccc1)c1ccc(C(=O)NCC)cc1)C2 | 2.24 | 10.5 |  | 

The next lines start with results.

Ki [1] [nM] | Ki (Mu-type opioid receptor [2]) [nM] | Structure (SMILES) | ED50 (Mus musculus) [µmol/kg] | Stimulation (Mu-type opioid receptor [3]) [%]
0.93 | 8.72 | CCNC(=O)c1ccc(C(=C2CC3CCC(C2)N3Cc2ccccc2Cl)c2ccc(O)cc2)cc1 |  | 
0.152 | 0.664 | CCNC(=O)c1ccc(C(=C2CC3CCC(C2)N3Cc2cccs2)c2cccc(O)c2)cc1 |  | 
7.8 | 21.7 | CCNC(=O)c1ccc(C(=C2CC3CCC(C2)N3CCc2ccccc2)c2ccc(O)cc2)cc1 |  | 
15.9 | 61 | CCNC(=O)c1ccc(C(=C2CC3CCC(C2)N3Cc2[nH]cnc2C)c2ccccc2)cc1 |  | 
23.7 | 84 | CCNC(=O)c1ccc(C(=C2CC3CCC(C2)N3CCc2c[nH]c3ccccc23)c2ccccc2)cc1 |  | 
0.51 | 3.79 | CCNC(=O)c1ccc(C(=C2CC3CCC(C2)N3Cc2cccs2)c2cccc(OC)c2)cc1 |  | 
3.88 | 101 | CCNC(=O)c1ccc(C(=C2CC3CCC(C2)N3Cc2c[nH]cn2)c2ccccc2)cc1 |  | 
2.02 | 2.52 | CCNC(=O)c1ccc(C(=C2CC3CCC(C2)N3CC=C(C)C)c2cccc(O)c2)cc1 |  | 
0.384 | 9.58 | C=CCN1C2CCC1CC(=C(c1ccc(C(=O)NCC)cc1)c1cccc(O)c1)C2 |  | 
63.4 | 93 | CCNC(=O)c1ccc(C(=C2CC3CCC(C2)N3CCOc2ccccc2)c2ccccc2)cc1 |  | 
26.2 | 76 | CCNC(=O)c1ccc(C(=C2CC3CCC(C2)N3CCO)c2ccccc2)cc1 |  | 
13.2 | 96 | CCNC(=O)c1ccc(C(=C2CC3CCC(C2)N3)c2cccc(OC)c2)cc1 |  | 
2.09 | 15 | CCNC(=O)c1ccc(C(=C2CC3CCC(C2)N3Cc2ccccc2Cl)c2cccc(O)c2)cc1 |  | 
1.32 | 13.5 | CCNC(=O)c1ccc(C(=C2CC3CCC(C2)N3Cc2cccs2)c2ccc(OC)cc2)cc1 |  | 
6.66 | 57.7 | CCNC(=O)c1ccc(C(=C2CC3CCC(C2)N3Cc2ccccc2Cl)c2cccc(OC)c2)cc1 |  | 
19.8 | 0.654 | CCNC(=O)c1ccc(C(=C2CC3CCC(C2)N3CCc2ccccc2)c2cccc(OC)c2)cc1 |  | 
22 | 1.6 | CCCNC(=O)c1ccc(C(=C2CC3CCC(C2)N3CCc2ccccc2)c2ccccc2)cc1 |  | 
0.25 | 6.77 | CCNC(=O)c1ccc(C(=C2CC3CCC(C2)N3Cc2cccs2)c2ccc(O)cc2)cc1 |  | 
13 | 0.14 | CNC(=O)c1ccc(C(=C2CC3CCC(C2)N3CCc2ccccc2)c2ccccc2)cc1 |  | 
 | 0.222 | CCNC(=O)c1ccc(C(=C2CC3CCC(C2)N3CCc2ccccc2)c2cccc(O)c2)cc1 |  | 
0.72 | 2.04 | CCNC(=O)c1ccc(C(=C2CC3CCC(C2)N3CC=C(C)C)c2cccc(OC)c2)cc1 |  | 
49.3 | 21.7 | CCCCNC(=O)c1ccc(C(=C2CC3CCC(C2)N3CCc2ccccc2)c2ccccc2)cc1 |  | 
